According to ChEMBL document CHEMBL5321210, “N-adamantyl-anthranil amide derivatives: New selective ligands for the cannabinoid receptor subtype 2 (CB2R)” (Eur J Med Chem, 2023):
Activity calls are given as the source filed them. The rule behind the calls is not given here.

How the values were obtained:
THP-1 [1] = assay: Antiinflammatory activity in PMA-differentiated human THP-1 macrophages assessed as decrease in IL-6 production at 1 to 10 uM incubated for 24 hrs in the presence of JTE907 by ELISA coupled qRT-PCR analysis; assay type: functional, cell-based; details: dose 1-10 µM
Cannabinoid receptor 2 = Cannabinoid receptor 2 (Homo sapiens, UniProt P34972); assay: Displacement of [3H]-CP55940 from human CB2 receptor expressed in HEK293 cell membrane assessed as inhibition constant incubated for 90 mins by radioligand competition binding assay; assay type: cell membranes
THP-1 [2] = assay: Antiinflammatory activity in human THP-1 monocytes assessed as decrease in IL-1beta production at 1 to 10 uM incubated for 24 hrs in the presence of JTE907 by ELISA coupled qRT-PCR analysis; assay type: functional, cell-based; details: dose 1-10 µM
THP-1 [3] = assay: Antiinflammatory activity in LPS-activated PMA-differentiated human THP-1 macrophages assessed as decrease in TNF-alpha production at 1 to 10 uM incubated for 24 hrs in the presence of JTE907 by ELISA coupled qRT-PCR analysis; assay type: functional, cell-based; details: dose 1-10 µM
THP-1 [4] = assay: Antiinflammatory activity in PMA-differentiated human THP-1 macrophages assessed as increase in IL-4 production at 1 to 10 uM incubated for 24 hrs in the presence of JTE907 by ELISA coupled qRT-PCR analysis; assay type: functional, cell-based; details: dose 1-10 µM
THP-1 [5] = assay: Antiinflammatory against LPS-activated human THP-1 monocytes assessed as increase in IL-4 production at 1 to 10 uM incubated for 24 hrs in the presence of JTE907 by ELISA coupled qRT-PCR analysis; assay type: functional, cell-based; details: dose 1-10 µM
THP-1 [6] = assay: Antiinflammatory activity against LPS-activated human THP-1 monocytes assessed as decrease in IFN-gamma production at 10 uM incubated for 24 hrs in the presence of N-(adamantan-1-yl)-4-(pentylamino)-[1,1'-biphenyl]-3-carboxamide by ELISA coupled qRT-PCR analysis; assay type: functional, cell-based
THP-1 [7] = assay: Antiinflammatory activity in PMA-differentiated human THP-1 macrophages assessed as decrease in IL-6 production at 10 uM incubated for 24 hrs in the presence of JTE907 by ELISA coupled qRT-PCR analysis; assay type: functional, cell-based
THP-1 [8] = assay: Antiinflammatory activity against LPS-activated PMA-differentiated human THP-1 macrophages assessed as decrease in TNF-alpha production at 10 uM incubated for 24 hrs by ELISA coupled qRT-PCR analysis relative to control; assay type: functional; parameters: scale not given: the % may be the effect or the level left
THP-1 [9] = assay: Antiinflammatory activity against LPS-activated PMA-differentiated human THP-1 monocytes assessed as decrease in IL-6 production at 10 uM incubated for 24 hrs in the presence of N-(adamantan-1-yl)-4-(pentylamino)-[1,1'-biphenyl]-3-carboxamide by ELISA coupled qRT-PCR analysis; assay type: functional, cell-based
THP-1 [10] = assay: Antiinflammatory activity in PMA-differentiated human THP-1 monocytes assessed as increase in IL-10 production at 10 uM incubated for 24 hrs in the presence of N-(adamantan-1-yl)-4-(pentylamino)-[1,1'-biphenyl]-3-carboxamide by ELISA coupled qRT-PCR analysis; assay type: functional, cell-based
THP-1 [11] = assay: Antiinflammatory activity in human THP-1 monocytes assessed as increase in IL-4 production at 10 uM incubated for 24 hrs in the presence of N-(adamantan-1-yl)-4-(pentylamino)-[1,1'-biphenyl]-3-carboxamide by ELISA coupled qRT-PCR analysis; assay type: functional, cell-based
THP-1 [12] = assay: Antiinflammatory activity in PMA-differentiated human THP-1 macrophages assessed as decrease in IL-1beta production at 10 uM incubated for 24 hrs in the presence of JTE907 by ELISA coupled qRT-PCR analysis; assay type: functional, cell-based
THP-1 [13] = assay: Antiinflammatory activity in PMA-differentiated human THP-1 macrophages assessed as increase in IL-4 production at 10 uM incubated for 24 hrs in the presence of JTE907 by ELISA coupled qRT-PCR analysis; assay type: functional, cell-based
THP-1 [14] = assay: Antiinflammatory activity in PMA-differentiated human THP-1 monocytes assessed as decrease in TNF-alpha production at 10 uM incubated for 24 hrs in the presence of N-(adamantan-1-yl)-4-(pentylamino)-[1,1'-biphenyl]-3-carboxamide by ELISA coupled qRT-PCR analysis; assay type: functional, cell-based
THP-1 [15] = assay: Antiinflammatory activity against LPS-activated human THP-1 monocytes assessed as decrease in IL-6 production at 10 uM incubated for 24 hrs in the presence of N-(adamantan-1-yl)-4-(pentylamino)-[1,1'-biphenyl]-3-carboxamide by ELISA coupled qRT-PCR analysis; assay type: functional, cell-based
THP-1 [16] = assay: Antiinflammatory activity in PMA-differentiated human THP-1 monocytes assessed as decrease in IL-1beta production at 10 uM incubated for 24 hrs in the presence of N-(adamantan-1-yl)-4-(pentylamino)-[1,1'-biphenyl]-3-carboxamide by ELISA coupled qRT-PCR analysis; assay type: functional, cell-based
THP-1 [17] = assay: Antiinflammatory activity in human THP-1 monocytes assessed as decrease in TNF-alpha production at 10 uM incubated for 24 hrs in the presence of N-(adamantan-1-yl)-4-(pentylamino)-[1,1'-biphenyl]-3-carboxamide by ELISA coupled qRT-PCR analysis; assay type: functional, cell-based
THP-1 [18] = assay: Antiinflammatory activity in LPS-activated PMA-differentiated human THP-1 macrophages assessed as increase in IL-10 production at 10 uM incubated for 24 hrs in the presence of JTE907 by ELISA coupled qRT-PCR analysis; assay type: functional, cell-based
THP-1 [19] = assay: Antiinflammatory activity against LPS-activated PMA-differentiated human THP-1 macrophages assessed as increase in IL-10 production at 10 uM incubated for 24 hrs by ELISA coupled qRT-PCR analysis; assay type: functional, cell-based
THP-1 [20] = assay: Antiinflammatory activity in human THP-1 monocytes assessed as increase in IL-10 production at 10 uM incubated for 24 hrs in the presence of JTE907 by ELISA coupled qRT-PCR analysis; assay type: functional, cell-based
THP-1 [21] = assay: Antiinflammatory activity against LPS-activated PMA-differentiated human THP-1 macrophages assessed as increase in IL-4 production at 10 uM incubated for 24 hrs by ELISA coupled qRT-PCR analysis; assay type: functional, cell-based
THP-1 [22] = assay: Antiinflammatory activity in PMA-differentiated human THP-1 macrophages assessed as increase in IL-4 production at 10 uM incubated for 24 hrs by ELISA coupled qRT-PCR analysis; assay type: functional, cell-based
THP-1 [23] = assay: Antiinflammatory activity against LPS-activated PMA-differentiated human THP-1 monocytes assessed as decrease in IFN-gamma production at 10 uM incubated for 24 hrs in the presence of N-(adamantan-1-yl)-4-(pentylamino)-[1,1'-biphenyl]-3-carboxamide by ELISA coupled qRT-PCR analysis; assay type: functional, cell-based
THP-1 [24] = assay: Antiinflammatory activity against LPS-activated human THP-1 monocytes assessed as decrease in TNF-alpha production at 10 uM incubated for 24 hrs in the presence of N-(adamantan-1-yl)-4-(pentylamino)-[1,1'-biphenyl]-3-carboxamide by ELISA coupled qRT-PCR analysis; assay type: functional, cell-based
THP-1 [25] = assay: Antiinflammatory activity in LPS-activated PMA-differentiated human THP-1 macrophages assessed as decrease in IL-6 production at 10 uM incubated for 24 hrs in the presence of JTE907 by ELISA coupled qRT-PCR analysis; assay type: functional, cell-based

Sequence of Cannabinoid receptor 2 (P34972 whole entry): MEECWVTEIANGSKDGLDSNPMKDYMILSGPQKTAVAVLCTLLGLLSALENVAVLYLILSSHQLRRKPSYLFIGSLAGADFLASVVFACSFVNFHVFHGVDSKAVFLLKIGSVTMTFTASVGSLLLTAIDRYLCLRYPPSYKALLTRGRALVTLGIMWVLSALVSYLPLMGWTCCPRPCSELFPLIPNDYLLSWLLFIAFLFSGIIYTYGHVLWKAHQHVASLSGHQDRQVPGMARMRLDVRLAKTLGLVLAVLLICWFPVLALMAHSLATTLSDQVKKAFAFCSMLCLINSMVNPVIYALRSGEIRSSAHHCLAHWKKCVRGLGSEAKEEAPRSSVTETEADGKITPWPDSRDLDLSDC

## CCCCCNc1ccccc1C(=O)NC12CC3CC(CC(C3)C1)C2
THP-1 [1]
  Activity: inactive
Cannabinoid receptor 2
  Ki: 0.0557 µM
THP-1 [2]
  Activity: inactive
THP-1 [3]
  Activity: inactive
THP-1 [4]
  Activity: inactive
THP-1 [5]
  Activity: inactive

## O=C(NC1CCCCC1)c1cn(CCN2CCOCC2)c2cc(Cl)ccc2c1=O
THP-1 [6]
  Activity: inactive
THP-1 [7]
  Activity: inactive
THP-1 [8]
  Activity: 70%
THP-1 [9]
  Activity: inactive
THP-1 [10]
  Activity: inactive
THP-1 [11]
  Activity: inactive
THP-1 [12]
  Activity: inactive
THP-1 [13]
  Activity: inactive
THP-1 [14]
  Activity: inactive
THP-1 [15]
  Activity: inactive
THP-1 [16]
  Activity: inactive
THP-1 [17]
  Activity: inactive
THP-1 [18]
  Activity: inactive
THP-1 [19]
  Activity: Active
THP-1 [20]
  Activity: inactive
THP-1 [21]
  Activity: Active
THP-1 [22]
  Activity: Active
THP-1 [23]
  Activity: inactive
THP-1 [24]
  Activity: inactive
THP-1 [25]
  Activity: inactive
